Assays:
[1] = target: T1, purified human BACE1 (Homo sapiens, UniProt P56817); assay: BACE1 FRET inhibition assay (SensoLyte 520); assay type: biochemical; conditions: 1 and 10 μM; 30 min
T1 construct: purchased AnaSpec, Inc., Fremont, CA, USA SensoLyte 520 BACE1 Assay kit (catalogue number not given)
Description: A fluorometric assay was used to screen the inhibitory effect of the studied compounds on purified human BACE1 using a fluorescence resonance energy transfer (FRET) peptide technique (SensoLyte© 520 BACE1 Assay kit, AnaSpec, Inc., Fremont, CA, USA) according to the manufacturer's protocol. […] The sequence of the FRET peptide has been derived from the β-secretase cleavage site of β-amyloid precursor protein (APP) with Swedish mutation, which enhances β-secretase to process APP resulting in an early onset of AD. Thus, active β-secretase cleaved FRET substrate into two separate fragments resulting in the release of HiLyte™ Fluor 488 fluorescence that was measured by the EnVision plate reader (EnVision, PerkinElmer, Inc., Waltham, MA, USA) at λex 490 nm and λem 520 nm. […] The results were reported as percentages (%), with control sample representing 100% β-secretase activity.

[2] = target: T2, LAT1 (Mus musculus, UniProt Q9Z127); assay: Transporter-mediated cellular uptake into primary astrocytes, primary mechanism (Eadie-Hofstee); assay type: in vitro ADME; conditions: Eadie-Hofstee analysis, mean ± SD, n = 3
T2 construct: mouse primary astrocytes, from which we have recently characterized LAT1 expression and function; endogenous in cells; host or cells: mouse primary astrocytes (cortex and hippocampi of 2-day-old wild-type and APP/PS1 mice)
T2 sequence (Q9Z127 whole entry): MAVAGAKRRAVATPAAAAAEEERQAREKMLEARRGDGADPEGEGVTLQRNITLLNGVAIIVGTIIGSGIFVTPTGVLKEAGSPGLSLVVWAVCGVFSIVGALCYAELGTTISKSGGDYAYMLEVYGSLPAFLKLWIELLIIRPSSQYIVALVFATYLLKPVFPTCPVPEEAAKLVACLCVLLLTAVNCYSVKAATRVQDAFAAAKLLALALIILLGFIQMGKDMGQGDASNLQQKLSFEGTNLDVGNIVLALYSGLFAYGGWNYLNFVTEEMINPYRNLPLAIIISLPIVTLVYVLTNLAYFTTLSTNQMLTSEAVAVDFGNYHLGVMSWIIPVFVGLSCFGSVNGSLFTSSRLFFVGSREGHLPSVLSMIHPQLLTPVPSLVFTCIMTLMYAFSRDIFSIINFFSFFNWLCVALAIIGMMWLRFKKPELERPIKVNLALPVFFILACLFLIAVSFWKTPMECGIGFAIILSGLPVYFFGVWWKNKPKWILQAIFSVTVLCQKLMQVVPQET
T2 sequence (P10852 whole entry partner): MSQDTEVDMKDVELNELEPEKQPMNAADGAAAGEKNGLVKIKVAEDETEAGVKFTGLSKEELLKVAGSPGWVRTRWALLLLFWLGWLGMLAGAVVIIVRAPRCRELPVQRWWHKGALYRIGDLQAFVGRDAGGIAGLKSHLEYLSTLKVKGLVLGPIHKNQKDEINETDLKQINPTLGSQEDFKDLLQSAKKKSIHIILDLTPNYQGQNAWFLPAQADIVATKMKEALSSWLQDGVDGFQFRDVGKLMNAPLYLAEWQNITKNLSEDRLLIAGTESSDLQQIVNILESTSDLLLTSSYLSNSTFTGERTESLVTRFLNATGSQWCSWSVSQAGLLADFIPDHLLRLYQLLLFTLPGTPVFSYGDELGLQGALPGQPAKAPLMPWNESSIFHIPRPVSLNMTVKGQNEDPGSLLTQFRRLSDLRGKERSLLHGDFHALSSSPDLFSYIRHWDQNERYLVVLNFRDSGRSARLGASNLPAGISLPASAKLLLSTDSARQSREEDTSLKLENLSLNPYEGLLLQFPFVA
Experimental: (§1) For the cell uptake experiments, the astrocytes were seeded on 24-well plates with a density of 10 × 10^4 cells/well three days before the experiments as described earlier. Cellular uptake of derivatives 1-3 of FA was studied by incubating the cells at 37°C for 30 min (uptake was linear with all compounds up to 30 min) with compounds at the concentration of 1-200 μM in prewarmed HBSS buffer (250 μL). […]; Agilent Technologies, Santa Clara, CA). The concentrations of each compound in cell lysates were calculated from the standard curve that was prepared by spiking known amounts of compounds to ACN including the selected internal standard and then normalized with protein concentration. The protein concentrations on each plate were determined as a mean of three samples by Bio-Rad Protein Assay, based on the Bradford dye-binding method, using bovine serum albumin (BSA) as a standard protein and measuring the absorbance (595 nm) by a multiplate reader (EnVision, PerkinElmer, Inc., Waltham, MA, USA).
(§2) All the cellular studies were carried out as three biological replicates from the same cell passage. The function of LAT1 was followed between the used cell passages (7-16) with a LAT1 probe substrate, [^14C]-L-leucine, and noticed to be unaltered. All statistical analyses, including Michaelis-Menten, Eadie-Hofstee, and Hanes-Woolf analyses, were performed using GraphPad Prism v. 5.03 software (GraphPad Software, San Diego, CA, USA). Statistical differences between groups were tested using one-way ANOVA, followed by Tukey's multiple comparison test, and presented as the mean ± SD, with significant differences denoted by asterisks (^∗P < 0.05, ^∗∗P < 0.01, and ^∗∗∗P < 0.001).

[3] = target: T3, acetylcholinesterase (AChE) (Mus musculus, UniProt P21836); assay: biochemical; assay type: biochemical; conditions: for Vmax of AChE activity in the presence of derivative (Hanes-Woolf plot): 16-66 μM derivative, Crtl Vmax = 2.21
T3 construct: mouse brain S9 fraction was prepared by homogenizing freshly collected mouse brain; from tissue; host or cells: mouse brain S9 fraction (9 000 x g supernatant)
T3 sequence (P21836 32-614): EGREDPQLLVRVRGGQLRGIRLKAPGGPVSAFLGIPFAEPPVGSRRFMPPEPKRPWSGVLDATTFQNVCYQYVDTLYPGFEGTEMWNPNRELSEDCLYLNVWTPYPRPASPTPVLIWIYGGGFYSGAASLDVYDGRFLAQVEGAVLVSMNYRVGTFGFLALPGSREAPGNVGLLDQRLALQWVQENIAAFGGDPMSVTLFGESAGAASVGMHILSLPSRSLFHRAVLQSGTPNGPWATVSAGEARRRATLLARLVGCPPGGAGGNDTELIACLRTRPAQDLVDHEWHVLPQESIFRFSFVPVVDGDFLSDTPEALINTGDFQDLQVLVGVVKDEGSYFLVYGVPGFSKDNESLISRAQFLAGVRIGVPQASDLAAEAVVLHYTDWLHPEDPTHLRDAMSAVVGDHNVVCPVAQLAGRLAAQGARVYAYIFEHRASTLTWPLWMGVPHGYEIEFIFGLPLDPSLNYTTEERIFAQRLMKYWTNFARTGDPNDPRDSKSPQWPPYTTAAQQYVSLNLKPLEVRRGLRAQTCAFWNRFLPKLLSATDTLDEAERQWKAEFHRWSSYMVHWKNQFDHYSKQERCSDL
Experimental: Briefly, mouse brain S9 fraction was prepared by homogenizing freshly collected mouse brain with 50 mM Tris-buffered saline (TBS) (pH 7.4) (1 : 4, w/v), centrifuging the homogenate at 9 000 × g for 20 min at 4°C and collecting the supernatant. The supernatant was then diluted at 1 : 10 with phosphate-buffered saline (100 mM; pH 7.0) and mixed with Ellman's reagent (5,5′-dithiobis-(2-nitrobenzoic acid); DTNB; 1 mM) and studied compounds in DMSO (DMSO concentration was less than 0.5%) on a 96-well plate as 3 parallel assays.
According to the Hanes-Woolf plots, the ratio of initial substrate concentration to the reaction velocity ([S]/v) was plotted against the substrate concentration (μM).

[4] = system: OATP/OAT; assay: Transporter-mediated cellular uptake into primary astrocytes, secondary mechanism (Eadie-Hofstee); assay type: in vitro ADME, mouse; conditions: Eadie-Hofstee analysis, mean ± SD, n = 3
Experimental: as §1, §2

[5] = mouse brain in vivo; previous study; cited from earlier work
[6] = system: LAT1; conditions: human breast adenocarcinoma cells (MCF-7); previously determined values; cited from earlier work
[7] = mouse brain S9 subcellular fraction, 30 min end point, mean ± SD, n = 3

T1 sequence (P56817 46-501): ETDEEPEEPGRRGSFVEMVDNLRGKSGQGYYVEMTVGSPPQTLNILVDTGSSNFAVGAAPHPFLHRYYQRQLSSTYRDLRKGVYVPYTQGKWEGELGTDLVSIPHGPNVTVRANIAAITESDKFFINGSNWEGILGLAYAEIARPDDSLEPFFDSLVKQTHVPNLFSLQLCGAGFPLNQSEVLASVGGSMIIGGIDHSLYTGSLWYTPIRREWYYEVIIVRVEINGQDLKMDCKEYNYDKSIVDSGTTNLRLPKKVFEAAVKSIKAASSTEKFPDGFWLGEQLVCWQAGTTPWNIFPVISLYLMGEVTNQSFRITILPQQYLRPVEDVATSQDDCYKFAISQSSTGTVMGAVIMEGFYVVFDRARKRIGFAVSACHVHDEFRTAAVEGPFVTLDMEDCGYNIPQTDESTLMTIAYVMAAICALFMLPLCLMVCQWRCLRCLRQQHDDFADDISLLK

SMILES	BACE1 inhibition [1]	Primary transport mechanism (LAT1) K m [2]	Primary transport mechanism (LAT1) V max [2]	AChE IC50 value [3, 7]	Secondary transport mechanism (OATP/OAT) K m [4]	Secondary transport mechanism (OATP/OAT) V max [4]	FA released in the brain [5]	Vmax of AChE activity in the presence of derivative (Hanes-Woolf plot) [3] [nmol/min/mg]	IC50 [3, 7] [µM]	IC50 [6] [µM]
COc1cc(/C=C/C(=O)O)ccc1O [FA, trans-4-hydroxy-3-methoxycinnamic acid, reference compound]	~97%	Autoactivation	Autoactivation	No inhibition	Autoactivation	Autoactivation				
COc1cc(C=CC(=O)NCc2cccc(CC(N)C(=O)O)c2)ccc1O (stereo not drawn) [FA-derivative 1]	78–91%	4.1 ± 2.1 µM	0.008 ± 0.002 nmol/min/mg protein		101.1 ± 19.7 µM	0.033 ± 0.402 nmol/min/mg protein	did not release any FA	2.12	16.3 ± 1.52	14.2
COc1cc(C=CC(=O)Nc2cccc(CC(N)C(=O)O)c2)ccc1O (stereo not drawn) [FA-derivative 2]	91–97%	4.2 ± 0.8 µM	0.013 ± 0.001 nmol/min/mg protein		153.8 ± 15.0 µM	0.172 ± 0.013 nmol/min/mg protein	less than 5%		25.2 ± 1.43	1.1
COc1cc(C=CC(=O)Oc2cccc(CC(N)C(=O)O)c2)ccc1O (stereo not drawn) [FA-derivative 3]	81–91%	Autoactivation	Autoactivation		Autoactivation	Autoactivation		2.09	66.2 ± 1.23	

From publication PMC6877910, “Astrocyte-Targeted Transporter-Utilizing Derivatives of Ferulic Acid Can Have Multifunctional Effects Ameliorating Inflammation and Oxidative Stress in the Brain” (Oxidative Medicine and Cellular Longevity, 2019)
